The text below walks through data of US20140271573A1, “PHARMACO-CELLULAR THERAPEUTIC METHOD FOR THE TREATMENT OF MUSCULAR DYSTROPHIES” (PONTIFICIA UNIVERSIDAD CATÓLICA DE CHILE, priority 2013, published 2014).

“Also recorded” adds a separate entry of the source.

Test [1] relates to CTGF. In words: CTGF expression induced by TGF-β1 in C2C12 cells, northern blot. It counts as cell-based, mouse. Conditions: C2C12, 10 ng/ml TGF-β1, 50 μM andrographolide, 6 hrs. From the text:
FIG. 1. […] (Vial et al., 2008).

In test [2] the test system is C2C12. In words: Fibronectin and collagen type III protein levels induced by TGF-β1 in C2C12 cells, immunoblot. It counts as cell-based, mouse. Conditions: C2C12, 10 ng/ml TGF-β1, 50 μM andrographolide, 24 hrs. On the technique in general: In western blotting, separated proteins are transferred to a membrane and probed.
The subject of test [3] is TGF-β1. Put plainly: TGF-β1 mRNA levels in tibialis anterior muscle of exercised mdx mice, RT-qPCR. It counts as in vivo, mouse. To be noted: 1 mg/kg i.p. 3 times per week for 3 months, vs vehicle. On the procedure: (§1) FIG. 2. Andrographolide reduced expression and activity of the pro-fibrotic cytokine, TGF-β1, in mdx mice. To augment the extent of muscle fibrosis, 3 months old mdx mice were subjected to an exercise protocol for 3 months. Along this period one group was treated with 1 mg/kg andrographolide or vehicle (i.p. injections 3 time per week, 4 animal per group). A) TGF-β1 mRNA levels, an important pro-fibrotic cytokine, were determined in tibialis anterior muscle from Wild type (WT), Vehicle-Treated mdx and andrographolide-treated mdx mice by RT-qPCR using GAPDH as reference gene. Values correspond to the mean of dCT value±SD of three independent experiments, using four mice for each experimental condition and normalized to WT levels (*, P<0.05 relative to WT mice; #, P<0.05 relative to Vehicle-treated mdx mice). B) Detection of pSmad-2 (an intracellular TGF-β1 mediator) through indirect immunofluorescence analysis in cryosections of tibialis anterior muscle from Vehicle-treated and andrographolide-treated mdx mice. Bar corresponds to 200 μm.
(§2) Control or mdx (12 weeks old) male mice of C57BL/10 ScSn strain were studied. The animals were kept at room temperature with a […] night-day cycle and fed with pellets and water ad libitum. […]

For test [4], the system named is TGF-β1 canonical signaling pathway (p-Smad 2). Put plainly: pSmad-2 indirect immunofluorescence in tibialis anterior cryosections of mdx mice. It counts as in vivo, mouse. To be noted: exercised mdx mice, 1 mg/kg i.p. 3 times per week for 3 months. On the procedure:
as §1, §2

The test system of test [5] is mdx mice. In words: Hematoxylin and eosin histology of tibialis anterior muscle of mdx mice. In kind it is in vivo, mouse. To be noted: exercised mdx mice, 1 mg/kg i.p. 3 times per week for 3 months, vs vehicle. On the procedure:
(§3) FIG. 4. Andrographolide reduced skeletal muscle damage in mdx mice. To augment the extent of muscle fibrosis, 3 months old mdx mice were subjected to an exercise protocol for 3 months. Along this period one group was treated with 1 mg/kg andrographolide or vehicle (i.p. injections 3 time per week, 6 animal per group). […] B) Evans blue dye uptake in tibialis anterior muscle fibers from wild-type (WT), Vehicle-treated mdx and andrographolide-treated mdx mice. Nuclei were labeled with Hoechst. Mice were injected i.p. with 1% Evans blue dye 24 hours before muscle fixation. Bar corresponds to 200 μm. […] Values are expressed as mean±SD of three independent experiments, using eight mice for each experimental condition. (*, P<0.05 relative to WT mice; #, P<0.05 relative to Vehicle-treated mdx mice).
Control or mdx (12 weeks old) male mice of C57BL/10 ScSn strain were studied. The animals were kept at room temperature with a […] night-day cycle and fed with pellets and water ad libitum. Experimental exercise was performed for running the mice in a treadmill for three times per week, 30 minutes each time at 12 m/min during 3 or 4 months (De Luca et al., 2005; De Luca et al., 2003). […]
Architecture and histology were detected by hematoxylin-eosin (H&E) stain in transverse sections of muscle (Morales et al., 2011).

The test system of test [6] is mdx mice. Put plainly: Serum creatine kinase (CK) measurement in mdx mice. In kind it is in vivo, mouse. To be noted: exercised mdx mice, 1 mg/kg i.p. 3 times per week for 3 months, vs vehicle. On the procedure:
as §3, §2
Mice were anesthetized by isofluorane gas, and blood was obtained from the periorbital vascular plexus directly into microhematocrit tubes (70 μl, Fisher Scientific). […] Serum CK was measured by enzymatic system (Valtek, Chile) according to the manufacturer instructions) (Osses and Brandan, 2002).

Test [7] deals with mdx mice. In words: Treadmill running test (step backs) in mdx mice. It counts as in vivo, mouse. To be noted: treated mdx mice, treadmill at 15 m/min. On the procedure:
FIG. 6. Andrographolide increased skeletal muscle strength and exercise performance in mdx mice. 3 months old Wild Type (WT) and mdx mice were subjected to an exercise protocol for 3 months to augment the extent of muscle fibrosis. Along this period one group was treated with 1 mg/kg andrographolide or vehicle (i.p. injections 3 time per week, 6 animal per group). A) tibialis anterior muscles from wild-type (WT), Vehicle-treated mdx and andrographolide-treated mdx mice were isolated to evaluate isometric specific force (mN/mm2) at different stimulation frequencies (pulses per second, pps). B) Bar graph showing tetanic specific force. Values are represented as percentage of specific isometric force generated by Wild type muscle (*, P<0.05 relative to WT mice; #, P<0.05 relative to Vehicle-treated mdx mice). C) Bar graph showing twitch force (*, P<0.05 relative to WT mice; #, P<0.05 relative to Vehicle-treated mdx mice). D) Mice were subjected to an exercise challenge into the treadmill at 15 meters/min for 5 minutes and the number of stebacks was counted (*, P<0.05 relative to WT mice; #, P<0.05 relative to Vehicle-treated mdx mice).
Mice were subjected to a running test during […] at 15 m/min in a treadmill. The number of times that mice were retarded (step backs) to the first ⅓ of the moving platform was counted (Cabello-Verrugio et al., 2012).

In test [8] the test system is MES-13 cells. Conditions: cited from earlier work.

As for `C=C1CC[C@@H]2[C@](C)(CO)[C@H](O)CC[C@@]2(C)[C@@H]1C/C=C1/C(=O)OC[C@H]1O` [andrographolide], the “induction of CTGF expression in response to TGF-β1” value in test [1] is on record as “reduced”. For the same compound, in test [2], the “collagen type III protein levels induced by TGF-β1 in vitro” value is on record as “decreased” and the “fibronectin protein levels induced by TGF-β1 in vitro” value is on record as “decreased”. In addition, the “expression of TGF-β1 (mRNA) in mdx mice” value in test [3] is listed as “reduced”. Besides, the “number of positive nuclei for phosphorylated smad2 protein” value in test [4] was “reduced”. Further, the “damaged areas in muscle, hematoxylin and eosin staining” value in test [5] is “striking smaller muscle damaged areas; also recorded: prevented the increase of damaged areas”. For the same compound, the “serum CK levels” value in test [6] is reported as “significant reduction; also recorded: decreased”. The “number of stepbacks at the treadmill” value in test [7] is on record as “decreased”. Besides, in test [8] (MES-13 cells), the “phenotypes indicating diabetic nephropathy in MES-13 cells” value is “reduces”. In addition, in test [8], the “antioxidant ability in a cellular environment” value is listed as “do not have antioxidant ability”. Further, the intracellular oxidative states result in test [8] (high glucose cultured MES-13 cells) was “reduced”.
